Measurements from PubChem BioAssay (NCI).
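Assay format: 96-well plates, 48-hour exposure. TGI: concentration producing complete growth inhibition.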

Assays:
Experiment in all cases: DTP human tumour cell line panel, 48 h
[1] = tested on: BT-549 breast
[2] = tested on: MDA-MB-231 breast
[3] = tested on: SF-539 CNS
[4] = tested on: SR leukemia
[5] = tested on: MDA-MB-435
[6] = tested on: UACC-257 melanoma
[7] = tested on: M14 melanoma
[8] = tested on: HCT-15 colon
[9] = tested on: OVCAR-8 ovarian
[10] = tested on: OVCAR-4 ovarian
[11] = tested on: UO-31 renal

Row | SMILES | TGI [1] [µM] | TGI [2] [µM] | TGI [3] [µM] | TGI [4] [µM] | TGI [5] [µM] | TGI [6] [µM] | TGI [7] [µM] | TGI [8] [µM] | TGI [9] [µM] | TGI [10] [µM] | TGI [11] [µM]
1 | COc1cc2c(c(OC)c1OC)C(=O)c1c(O)cc(C)c(OC)c1C2=O | > 100 | > 100 | > 100 | > 100 | > 100 | > 100 | > 100 | > 100 | > 100 | > 100 | > 100
2 | Nc1nc(Sc2ccc([N+](=O)[O-])c3nonc23)c2[nH]cnc2n1 | 18 | 13.7 | 14.8 | 1.77 | 12 | 9.14 | 8.72 | 14.1 | 9.7 | 15.9 | 2.07
3 | COc1cc(/C=C(\C)[N+](=O)[O-])cc(OC)c1 | 33.6 | 31 | 16.9 | 7.04 | 28.3 | 31 | 28.2 | 29.9 | 29.7 | 33.5 | 29.1
4 | Cc1sc(/N=C/C2=C(O)CC(C)(C)CC2=O)nc1-c1ccccc1 | > 100 | > 100 | > 100 | > 100 | > 100 | > 100 | > 100 | > 100 | > 100 | > 100 | > 100
5 | Clc1ccc(-c2cn3c(nc4ccccc43)c(-c3ccccc3)n2)cc1 | 50.2 | > 100 | > 69 | > 100 | > 100 | > 100 | > 87.4 | > 100 | 33 | 25.2 | > 60
6 | O=C1NC(N2CCCC(CO)C2)=N/C1=C\c1cccs1 (configuration not stated) | > 100 | > 100 | > 100 | > 100 | > 100 | > 100 | > 100 | > 100 | > 100 | > 100 | > 100
7 | CCOC(=O)[C@@]12C[C@](/C=C/OC)(O[Si](C)(C)C)[C@@]13c1cc(OC)c(OC)cc1CCN3C(=O)C2=O | > 100 | > 100 | > 100 | > 100 | > 100 | > 100 | > 100 | > 100 | > 100 | > 100 | > 100
8 | O=C(/C=C/c1ccc(-c2ccccc2)cc1)NCc1ccc(C(=O)NCCc2ccccc2)cc1 | > 100 | > 100 | 38.1 | > 100 | > 100 | > 100 | > 100 | > 100 | > 100 | > 100 | > 100
9 | NC(CCC(=O)c1ccccn1)C(=O)O (configuration not stated) | > 100 | > 100 | > 100 | > 100 | > 100 | > 100 | > 100 | > 100 | > 100 | > 100 | > 100
10 | CNC(=O)[C@H](Cc1ccccc1)NC(=O)N(CCC#N)CCN(C(=O)N[C@@H](Cc1ccccc1)C(=O)OC)c1ccccc1 | > 100 | > 100 | > 100 | > 100 | > 100 | > 100 | > 100 | > 100 | > 100 | > 100 | > 100
11 | C=C1OC2OC(C)C(NC(=O)OCC(Cl)(Cl)Cl)C(OC(C)=O)C2O1 (configuration not stated) | > 100 | > 100 | > 100 | > 100 | > 100 | > 100 | > 100 | > 100 | > 100 | > 100 | > 100
12 | Cc1nc2ccc(NCCN(C)C)c3c(=O)c4ccccc4n1c23 | 23.6 | 5.8 | 16 | 10.6 | 16.1 | 17.6 | 16.4 | 6.22 | 10.1 | 6.82 | 11.1
13 | CC(=O)O[C@H]1[C@@H](N2CCOCC2)C[C@H]2[C@@H]3CC=C4C[C@@H](N5CCCC5)CC[C@]4(C)[C@H]3CC[C@@]21C | > 100 | > 100 | > 100 | 83.7 | > 100 | > 100 | > 100 | > 100 | > 100 | > 100 | > 100
14 | CCCOC(=O)c1cc(O)c(O)c(O)c1 | > 100 | > 100 | 70.9 | > 100 | 81.1 | > 100 | > 100 | > 100 | > 100 | > 100 | > 100
15 | COc1ccc(-c2nc3ccccc3c(=O)[nH]2)cc1 | > 100 | > 100 | > 100 | > 100 | > 100 | > 100 | > 100 | > 100 | > 100 | 95.1 | > 100
16 | O=c1c(-c2nc3ccccc3c3ccccc3c2=O)nc2ccccc2c2ccccc12 | > 100 | > 100 | 55.3 | 61 | 89 | > 100 | > 100 | > 100 | > 100 | > 100 | > 100
17 | Cc1nn2c(=O)c([N+](=O)[O-])c(/C=C/c3ccc(F)cc3)nc2s1 | 18.8 | 26.8 | 17.9 | 16.5 | 10.5 | 22.3 | 16.4 | 16.5 | 16 | 19.5 | 16.2
